{"source": "paper PMC9848473", "about": "(Science Advances, 2023)", "key": {"[1]": {"molecular_target": "T1, RelBs^NTD2:DarB2 complex (DarB:RelBs^NTD) (Bacillus subtilis, UniProt O54408)", "T1 construct": "gene relA; heterotetramer of Rel residues 1 to 373 with full-length DarB, His10-SUMO tags cleaved, complex purified by size exclusion chromatography; with CBS domain-containing protein YkuL", "T1 sequence (O54408 1-373)": "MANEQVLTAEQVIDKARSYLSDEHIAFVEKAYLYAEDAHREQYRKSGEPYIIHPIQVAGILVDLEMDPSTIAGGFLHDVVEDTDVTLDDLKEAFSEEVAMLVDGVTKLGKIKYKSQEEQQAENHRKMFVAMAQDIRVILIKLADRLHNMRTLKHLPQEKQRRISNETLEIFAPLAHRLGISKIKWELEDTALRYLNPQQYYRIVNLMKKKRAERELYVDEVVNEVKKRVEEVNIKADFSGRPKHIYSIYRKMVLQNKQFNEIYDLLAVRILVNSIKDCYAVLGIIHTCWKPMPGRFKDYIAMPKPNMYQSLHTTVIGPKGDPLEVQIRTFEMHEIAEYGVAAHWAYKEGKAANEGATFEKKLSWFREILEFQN", "T1 sequence (O31698 whole entry, further chain, the tested form may be a part)": "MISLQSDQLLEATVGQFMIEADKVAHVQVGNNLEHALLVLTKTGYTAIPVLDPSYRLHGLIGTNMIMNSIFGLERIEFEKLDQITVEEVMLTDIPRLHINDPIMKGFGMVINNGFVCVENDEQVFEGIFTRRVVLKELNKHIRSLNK", "assay": "stopped-flow FRET, Kd = koff/kon", "assay_type": "binding", "conditions": "read-out: Kd^MANT-ATP"}, "[2]": {"molecular_target": "T1, RelBs^NTD2:DarB2 complex (DarB:RelBs^NTD)", "assay": "isothermal titration calorimetry", "assay_type": "binding"}, "[3]": {"molecular_target": "T2, RelBs^NTD (Bacillus subtilis, UniProt O54408)", "T2 construct": "gene relA; N-terminal domain region, residues 1 to 373 (HD, SYNTH and core domains), His10-SUMO tag cleaved with Ulp1, from E. coli BL21(DE3)", "T2 sequence (O54408 1-373)": "as the sequence (O54408 1-373) above", "assay": "isothermal titration calorimetry", "assay_type": "binding", "conditions": "25°C; pH 7.5; 10 mM MgCl2"}, "[4]": {"molecular_target": "DarB (Bacillus subtilis, UniProt O31698)", "sequence (O31698 whole entry)": "as the sequence (O31698 whole entry, further chain, the tested form may be a part) above", "assay": "biochemical"}}, "note": "pKd: −log10 of the molar value.", "data": [{"smiles": "CNc1ccccc1C(=O)O[C@H]1[C@@H](O)[C@H](n2cnc3c(N)ncnc32)O[C@@H]1CO[P@@](=O)(O)O[P@](=O)(O)OP(=O)(O)O", "note": "(mixture of isomers) [MANT-ATP]", "values": [{"measurement": "pKd", "setting": "[1]", "result": 3.51}]}, {"smiles": "Nc1ncnc2c1ncn2[C@@H]1O[C@H](COP(=O)(O)CP(=O)(O)OP(=O)(O)O)[C@@H](O)[C@H]1O", "note": "[APCPP, adenosine-5′-[(α,β)-methyleno]triphosphate]", "values": [{"measurement": "pKd", "setting": "[2]; read-out: Kd^APCPP", "result": 3.94}, {"measurement": "isothermal titration calorimetry", "setting": "[3]", "result": "RelBs^NTD alone has low affinity to APCPP (Fig. 5G)"}]}, {"smiles": "Nc1ncnc2c1ncn2[C@@H]1O[C@@H]2COP(=O)(O)O[C@H]3[C@@H](O)[C@H](n4cnc5c(N)ncnc54)O[C@@H]3COP(=O)(O)O[C@H]2[C@H]1O", "note": "[c-di-AMP]", "values": [{"measurement": "pKd", "setting": "[4]", "result": 7.34}]}, {"smiles": "Nc1nc2c(ncn2[C@@H]2O[C@H](COP(=O)(O)OP(=O)(O)OP(=O)(O)O)[C@@H](OP(=O)(O)OP(=O)(O)O)[C@H]2O)c(=O)[nH]1", "note": "[pppGpp]", "values": [{"measurement": "pKd", "setting": "[2]; read-out: Kd", "result": 5.09}]}]}
